{
  "source": "patent US20230149388A1",
  "about": "“OPIOID ANTAGONIST FORMULATIONS” (EMERGENT PRODUCT DEVELOPMENT GAITHERSBURG INC., priority 2020, published 2023)",
  "assay": "Pharmacokinetics of naloxone in Beagle dog, IM injection",
  "type": "in vivo",
  "settings": "both sexes, plasma, 0.3 mg/kg, Beagle dogs",
  "description": "Pharmacokinetic (“PK”) data was collected from male and female Beagle dogs. Two (2) animals of each sex were assigned to three cohorts. […] Each injection was administered at a dose of 0.3 mg/kg.\nBlood samples were collected from each animal following IV injections at target time points of pre-dose, and at 0.033, 0.083, 0.167, 0.333, 0.5, 1, 2, 4, and 8 hr. Blood samples were also collected from each animal following IM injections at target time points of pre dose, and at 0.083, 0.167, 0.25, 0.333, 0.5, 1, 2, 4, and 8 hr. Blood samples were collected into tubes containing dipotassium ethylenediaminetetraacetic acid (K2EDTA), processed to plasma, and stored until analyzed for naloxone.\nPK analysis was performed using the target dose (mg/kg), sample collection time points (hr), and the measured concentrations of naloxone (ng/mL) in serum. If the actual sample collection time points were within 5% of target from 0 to 4 hours or within 15 minutes after 4 hours, then the target time points were used. […] The lower limit of quantitation (LLOQ) in plasma for this method is 0.2 ng/mL.\nThe method utilized protein precipitation in a 96-well format and LC-MS/MS analysis. The literature method was modified to utilize a larger sample size (50 μL) analysis.\nThe concentration-time profiles were evaluated using the non-compartmental analysis (NCA) module in the WinNonlin® software program (Version 8.2). […]",
  "data": [
    {"smiles": "C=CCN1CC[C@]23c4c5ccc(O)c4O[C@H]2C(=O)CC[C@@]3(O)[C@H]1C5", "note": "[naloxone]", "values": [
      {"measurement": "Tmax", "setting": "following IM injection, typical value", "result": "~15", "unit": "min"},
      {"measurement": "half-life", "setting": "following both IM and IV injection, read-out: group mean elimination half-life", "result": "28 to 35", "unit": "min"}
    ]}
  ]
}
